Our source for the IC50 and viability, T/C values is PubChem BioAssay AID1963425 (Molecular Pharmacology Branch, DTP, NCI, 2024).

In the test the test system is 323965-272-R-J2-PDC complex spheroid growth, % test/control. As to the kind of experiment: Anticancer human tumor 323965-272-R-J2-PDC patient-derived pancreatic carcinoma cell line growth inhibition [Asc]. The following applies: for viability, T/C: stronger effect = lower value. How it is done:
Multicellular complex tumor spheroid response to apoptosis pathway targeting inhibitors Alrizomadlin, Pelcitoclax, and Dasminapant in combination with a variety of drugs and investigational agents in selected tumor cell lines
The MDM2 inhibitor alrizomadlin, the Bcl-2/Bcl-xL inhibitor pelcitoclax, and the IAPs inhibitor dasminapant were evaluated both individually and in combination with standard of care and investigational anticancer small molecules within a complex spheroid model of solid tumors. . Complex spheroids include a stromal component modeled by human endothelial cells (HUVEC) and fibroblasts modeled by human mesenchymal stem cells (MSCs). The concentration ranges selected for each drug and investigational agent were based upon clinically achievable concentrations if the clinical Cmax of the agent was known.
Compounds. The drugs and investigational agents: alrizomadlin (APG-115; NSC831270), pelcitoclax (APG-1252; NSC835773), dasminapant (APG-1387;NSC834197), TAK-243 (NSC785004), copanlisib (NSC809693), olaparib (NSC753686), talazoparib (NSC767125), cobimetinib (NSC 768068), eltanexor (KPT-8602, NSC 794443), abemaciclib (NSC 768073), sotorasib (NSC818433), adagrasib (NSC 831453), MRTX-1133 (NSC 836407), Iadademestat (ORY1001, NSC 806812), and RMC-4630 (NSC839698), were obtained from the NCI Developmental Therapeutics Program Chemical Repository. The FDA-approved anticancer drug set is available from the Developmental Therapeutics Program at https://dtp.cancer.gov/organization/dscb/obtaining/available plates.htm. […] The stock solutions were prepared in dimethyl sulfoxide (DMSO, Sigma-Aldrich, St. Louis, MO, cat. D2650) at 800-fold the tested concentration and stored at -70 degrees C prior to their use. All drugs and investigational agents were tested over a range starting from a high concentration at or near the clinical Cmax and decreasing in half-log increments. If the clinical Cmax for an agent had not been determined, the highest concentration tested was 10 microM.
The patient-derived cancer (PDC) cell lines include five colon adenocarcinomas: 186277-243-T-J2-PDC, 616215-338-R-J1-PDC, 439559-082-T-J2-PDC, 463943-066-T-J2-PDC, and 519858-162-T-J1-PDC; three pancreatic carcinomas: 323965-272-R-J2-PDC, 521955-158-R6-J3-PDC, and 521955-158-R2-J5-PDC; two uterine sarcomas: 327498-152-R-J2-PDC and 993429-296-R-J1-PDC; two rhabdomyosarcomas: 755483-174-R-J1-PDC and 772245-204-R-J1-PDC; two soft tissue sarcomas: 126254-015-R-J1-PDC and 494315-158-R-J1-PDC; two malignant fibrous histiocytomas: 317291-083-R-J1-PDC and 596521-263-R-J1-PDC; two breast carcinomas: 171881-019-R-J1-PDC and 885512-296-R-J2-PDC; and one ovarian carcinoma: 6556581-035-R-J-PDC were obtained from the NCI PDMR, (https://pdmr.cancer.gov). The established cell lines HSSY-2 synovial sarcoma (RRID:CVCL 8719), SYO-1 synovial sarcoma (RRID:CVCL_7146), MPNST malignant peripheral neural sheath tumor were obtained from the Sloan Kettering Institute. The following established cell lines were purchased from the American Type Culture Collection (ATCC, Manassas, VA), Sor the received from the NCI repository:, PANC-1 pancreatic carcinoma (CRL-1469, RRID:CVCL_0480), OVCAR-5 ovarian carcinoma (RRID:CVCL_1628), OVCAR-8 ovarian carcinoma (RRID:CVCL_1629), , MCF-7 breast carcinoma (CRL-12584, RRID:CVCL_0031), MDA-MB-231 breast carcinoma (CRL-12532, RRID:CVCL_0062), NCI-H1876 small cell lung carcinoma (CRL-5902, RRID:CVCL_1503), NCI-H510A small cell lung carcinoma (HTB-184, RRID:CVCL_1565), NCI-H1417 (CRL-5869, RRID:CVCL_1469), and NCI-H196 small cell lung carcinoma (CRL-5823, RRID:CVCL_1509). Dr. Peter Houghton (Greehey Children's Cancer Research Institute, University of Texas Health Science Center, San Antonio, TX) provided Rh-18 rhabdomyosarcoma (RRID:CVCL_1659). Pooled donor human umbilical vein endothelial cells (HUVEC, Lonza, cat. CC-2519) and human mesenchymal stem cells (hMSC, Lonza, cat. PT-2501) were purchased from Lonza (Walkersville, MD).
Cell Culture. […]

Values joined by “and” are separate entries in the source; they are usually repeats but may differ in a detail not shown here. Identical values can stand only once. Where only a bound is given, the exact number is not on record here.
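Also: compound exposure lasted 7 days starting three days after spheroid seeding.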
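For viability, T/C in this document: 100% = DMSO vehicle control wells with viability set relative to vehicle.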

For `NC(=O)C(=Cn1cnc(-c2cc(C(F)(F)F)cc(C(F)(F)F)c2)n1)c1cncnc1` + CNC(C)C(=O)NC1CN(S(=O)(=O)c2cccc(S(=O)(=O)N3CCC4CCC(C(=O)NC(c5ccccc5)c5ccccc5)N4C(=O)C(NC(=O)C(C)NC)C3)c2)CCC2CCC(C(=O)NC(c3ccccc3)c3ccccc3)N2C1=O, the IC50 by setting is: (curve of first compound, second compound 0.00316 µM) more than 300 nM; (curve of first compound, second compound 0.01 µM) more than 300 nM; (curve of first compound, second compound 0.0316 µM) more than 300 nM; (curve of first compound, second compound 0.1 µM) more than 300 nM; (curve of first compound, second compound 0.316 µM) more than 300 nM; (curve of first compound, second compound 1 µM) more than 300 nM. For the same molecule, the viability, T/C (second compound 0.00316 µM, first compound 0.000949 µM) is 121%; the viability, T/C (second compound 0.00316 µM, first compound 0.003 µM) is 120%; the viability, T/C (second compound 0.00316 µM, first compound 0.00949 µM) is 97.1%; the viability, T/C (second compound 0.00316 µM, first compound 0.03 µM) was 99.6%; the viability, T/C (second compound 0.00316 µM, first compound 0.0949 µM) was 70.7%; the viability, T/C (second compound 0.00316 µM, first compound 0.3 µM) is 76.2%. Moreover, the viability, T/C (second compound 0.01 µM, first compound 0.000949 µM) is 103%; the viability, T/C (second compound 0.01 µM, first compound 0.003 µM) is 108%; the viability, T/C (second compound 0.01 µM, first compound 0.00949 µM) was 109%; the viability, T/C (second compound 0.01 µM, first compound 0.03 µM) is 91.1%; the viability, T/C (second compound 0.01 µM, first compound 0.0949 µM) was 78.8%; the viability, T/C (second compound 0.01 µM, first compound 0.3 µM) was 62.5%. Moreover, the viability, T/C reads like this: (second compound 0.0316 µM, first compound 0.000949 µM) 103%; (second compound 0.0316 µM, first compound 0.003 µM) 109%; (second compound 0.0316 µM, first compound 0.00949 µM) 108%; (second compound 0.0316 µM, first compound 0.03 µM) 86.7%; (second compound 0.0316 µM, first compound 0.0949 µM) 74.5%; (second compound 0.0316 µM, first compound 0.3 µM) 61.7%. Further, the viability, T/C reads like this: (second compound 0.1 µM, first compound 0.000949 µM) 105%; (second compound 0.1 µM, first compound 0.003 µM) 104%; (second compound 0.1 µM, first compound 0.00949 µM) 104%; (second compound 0.1 µM, first compound 0.03 µM) 87%; (second compound 0.1 µM, first compound 0.0949 µM) 80.4%; (second compound 0.1 µM, first compound 0.3 µM) 62.5%. For the same molecule, the viability, T/C is, setting by setting: (second compound 0.316 µM, first compound 0.000949 µM) 107%; (second compound 0.316 µM, first compound 0.003 µM) 111%; (second compound 0.316 µM, first compound 0.00949 µM) 96.3%; (second compound 0.316 µM, first compound 0.03 µM) 93.6%; (second compound 0.316 µM, first compound 0.0949 µM) 77.1%; (second compound 0.316 µM, first compound 0.3 µM) 62.4%. Also, the viability, T/C runs as follows: (second compound 1 µM, first compound 0.000949 µM) 101%; (second compound 1 µM, first compound 0.003 µM) 104%; (second compound 1 µM, first compound 0.00949 µM) 77.3%; (second compound 1 µM, first compound 0.03 µM) 83.7%; (second compound 1 µM, first compound 0.0949 µM) 78.4%; (second compound 1 µM, first compound 0.3 µM) 71%.

As to `C=C(F)C(=O)N1CCN(c2nc(OCC3CCCN3C)nc3c2CCN(c2cccc4cccc(Cl)c24)C3)CC1CC#N` (stereo not drawn), the viability, T/C (compound 0.0316 µM) was 56.9% and 67.8% and 73.2%; the viability, T/C (compound 0.1 µM) was 51.6% and 58.2% and 53.8%; the viability, T/C (compound 0.316 µM) was 47.7% and 60% and 57.1%; the viability, T/C (compound 1 µM) is 59% and 70.1% and 72.8%; the viability, T/C (compound 3.16 µM) was 61.5% and 76.8% and 82.5%. Besides, the IC50 (curve of compound) is 3550 nM and 4840 nM and 5670 nM.

Usually IC50 stands for the concentration needed to halve the response being measured. As a reminder, the viability, T/C is the result in the treated group divided by that in the control group, in per cent.
